Laboratory results from patent US5952307A, “Basic α-aminoalkylphosphonate derivatives” (priority 1997, dated 1999).

How the values were obtained:
Format in all cases: biochemical
bovine trypsin = target: T1, bovine trypsin (Bos taurus, UniProt P00760); test: Inactivation rate of bovine trypsin, incubation method; details: for kobs /[I] bovine trypsin: 0.13 μM trypsin, 0.25-42 μM inhibitor, 80 mM Hepes pH 7.5, 1 mM CaCl2, 8% DMSO, 25° C., NI = no inhibition; for kobsd /[I] bovine trypsin: Table I, 0.1M Hepes, 0.01M CaCl2 pH 7.5, 25° C., 2% DMSO, substrate Z--Arg--SBzl, NI = no inhibition after 25 min
T1 sequence (P00760 24-246): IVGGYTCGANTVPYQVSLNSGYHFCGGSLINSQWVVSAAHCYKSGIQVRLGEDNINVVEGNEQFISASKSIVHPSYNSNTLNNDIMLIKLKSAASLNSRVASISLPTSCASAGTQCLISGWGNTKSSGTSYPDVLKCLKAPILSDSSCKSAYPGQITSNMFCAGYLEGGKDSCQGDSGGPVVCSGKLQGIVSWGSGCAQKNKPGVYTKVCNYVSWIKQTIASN
Method: (§1) Inactivation rates of serine proteases by aryl diesters of peptidyl derivatives of α-aminoalkylphosphonates were measured by the incubation method. An aliquot of inhibitor (25 or 50 μl) in Me2 SO was added to a buffered enzyme solution (0.01-2.3 μM) to initiate the inactivation. Aliquots (50 μl) were withdrawn at various intervals and the residual enzymatic activity was measured. Me2 SO concentration in the reaction mixture was 8-12% (v/v). A 0.1 M HEPES, 0.01 M CaCl2, pH 7.5 buffer was utilized for trypsin and trypsin-like enzymes. A 0.1 M HEPES, 0.5 M NaCl, pH 7.5, was utilized for the other serine proteases. Peptide thioesters or peptide nitroanilides with the appropriate sequences were used as substrates for various serine proteases. All peptide thioesters hydrolysis rates were measured with the assay mixture containing 4,4'-dithiodipyridine {ε324 =19800 M^-1 cm^-1; Grasetti & Murray, Arch. Biochem. Biophys. 1967, 119, 41-48}. Peptide 4-nitroanilide hydrolysis was measured at 410 nm {ε410 =8800 M^-1 cm^-1; Erlanger et al., Arch. Biochem. Biophys. 1961, 95, 271-278}. First order inactivation rate constants (Kobs) were obtained from plots of In vt /vo vs time, and the correlation coefficients were greater then 0.98.
(§2) ^a Inhibition constants were measured in 0.1M Hepes, 0.01M CaCl2
(§3) pH 7.5 for trypsin, granzymes A, and K, and in 0.1M Hepes, 10% glycerol,
(§4) 10 mM heparin, pH 7.5 for mast cell tryptase, and at 25° C. The
(§5) reaction mixtures contained 2% DMSO for trypsin, 7.6% for granzyme A, and
(§6) 7.1% for granzyme K and tryptase. The substrate was Z--Arg--SBzl for
(§7) granzymes and trypsin, and Z--Arg--SBzl or Z--Lys--SBzl for tryptase in
(§8) the presence of DTNB. The inhibitor # concentration ranged from 0.001 to
(§9) ^b NI, no inhibition after 25 min of incubation with enzyme.
(§10) ^a Enzyme was incubated with the inhibitor in 250 μL of the proper
(§11) buffer at 25° C. Specifically, the inhibition reation mixtures wer
composed of: 0.13 μM trypsin, 0.25-42 μM inhibitor in an 80 mM
(§12) Hepes, pH 7.5 buffer containing 1 mM CaCl2 and 8% DMSO; 0.07 μM
(§13) DMSO. Aliquots of 25 μL were withdrawn at various intervals and the
(§14) residual enzymatic activity was measured as described in experimental
(§15) section. The kobs values were calculated from pseudofirst-order
(§16) ^a Enzyme (0.06-0.5 μM) was incubated with the inhibitor (0.25-42
(§17) μM) in 250 μL of the proper buffer containing 9% DMSO at 25°
(§18) C. The final inhibition reaction mixtures are given in the footnote to
(§19) Table 1. Aliquots of 25 μL were withdrawn at various intervals and the […]

human thrombin = target: T2, human thrombin (Homo sapiens, UniProt P00734); details: Table II; for kobs /[I] human thrombin: 0.07 μM thrombin, 0.25-42 μM inhibitor, 80 mM Hepes pH 7.5, 428 mM NaCl, 8% DMSO, 25° C., NI = no inhibition
T2 construct: bovine trypsin, human thrombin
Method: as §1, with “271-278}.” for “271-278}. First order inactivation rate constants (Kobs) were obtained from plots of In vt /vo vs time, and the correlation coefficients were greater then 0.98.”
as §10, §11, §12
thrombin, 0.25-42 μM inhibitor in an 80 mM Hepes, pH 7.5 buffer
(§20) containing 428 mM NaCl and 8% DMSO; 0.07 μM tryptase, 20-66 μM
as §13, §14, §15, §16, §17, §18, §19

human granzyme A = target: T3, human granzyme A (Homo sapiens, UniProt P12544); test: Inactivation rate of human granzyme A, incubation method; details: Table I; 0.1M Hepes, 0.01M CaCl2 pH 7.5, 25° C., 7.6% DMSO, substrate Z--Arg--SBzl
T3 sequence (P12544 29-262): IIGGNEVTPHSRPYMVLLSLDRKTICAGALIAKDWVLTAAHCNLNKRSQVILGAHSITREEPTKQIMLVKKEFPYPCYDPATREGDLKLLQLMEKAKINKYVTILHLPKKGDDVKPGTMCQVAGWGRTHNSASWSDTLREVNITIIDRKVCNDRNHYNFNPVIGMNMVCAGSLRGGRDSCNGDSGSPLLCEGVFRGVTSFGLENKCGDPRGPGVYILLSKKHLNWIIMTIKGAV
Method: as §1, §2, §3, §4, §5, §6, §7, §8, §9

mast cell tryptase = mast cell tryptase (Homo sapiens, UniProt Q15661); test: Inactivation rate of mast cell tryptase, incubation method; details: for kobsd /[I] mast cell tryptase: Table I, 0.1M Hepes, 10% glycerol, 10 mM heparin, pH 7.5, 25° C., 7.1% DMSO, NI = no inhibition after 25 min of incubation; for kobs /[I] mast cell tryptase: Table II, 0.07 μM tryptase, 20-66 μM inhibitor, Hepes pH 7.5, heparin, 9% glycerol, 8% DMSO, 25° C., NI = no inhibition
Method: as §1, §2, §3, §4, §5, §6, §7, §8, §9, §10, §20
inhibitor # in an mM Hepes, pH 7.5 buffer containing 8 mM heparin, 166 m
NaCl, 0.8 mM Mes, 9% glycerol and 8% DMSO; 0.42 μM factor Xa, 66 μM
as §13, §14, §15, §16, §17, §18, §19

Chain of mast cell tryptase (Q15661 31-275): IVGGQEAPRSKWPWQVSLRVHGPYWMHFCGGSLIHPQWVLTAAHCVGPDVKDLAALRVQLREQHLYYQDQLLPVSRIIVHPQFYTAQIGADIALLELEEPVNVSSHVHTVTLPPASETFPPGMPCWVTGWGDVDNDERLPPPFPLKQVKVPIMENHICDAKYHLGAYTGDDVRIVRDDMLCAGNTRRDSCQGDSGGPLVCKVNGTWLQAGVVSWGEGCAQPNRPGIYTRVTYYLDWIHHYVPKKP

| Compound | kobs /[I] bovine trypsin (bovine trypsin; Table II) | kobs /[I] human thrombin (human thrombin) | further results |
| --- | --- | --- | --- |
| N=C(N)c1ccc(C(NC(=O)CNC(=O)OCc2ccccc2)P(=O)(Oc2ccccc2)Oc2ccccc2)cc1 (stereo not drawn) [Cbz--Gly-(4-AmPhGly)^P (OPh)2] | 195 ± 9 M⁻¹ s⁻¹ | 24 ± 3 M⁻¹ s⁻¹ | – |
| COP(=O)(Oc1ccccc1)C(NC(=O)OCc1ccccc1)c1ccc(C(=N)N)cc1.Cl (stereo not drawn) [Cbz-(4-AmPhGly)^P (OPh)(OMe), Methyl Phenyl N-Benzyloxycarbonylamino-(4-amidinophenyl)methanephosphonate Hydrochloride] | 83 M⁻¹ s⁻¹ | 41 M⁻¹ s⁻¹ | – |
| CC(C)CC(NC(=O)C(CC(N)=O)NC(=O)OC(C)(C)C)C(=O)NC(C(=O)NC(c1ccc(C(=N)N)cc1)P(=O)(Oc1ccccc1)Oc1ccccc1)C(C)O (mixture of isomers) [Boc--Asn--Leu--Thr-(4-AmPhGly)^P (OPh)2] | 18 ± 2 M⁻¹ s⁻¹ | 46 ± 6 M⁻¹ s⁻¹ | – |
| CC(C)CC(NC(=O)OC(C)(C)C)C(=O)NC(C(=O)NC(c1ccc(C(=N)N)cc1)P(=O)(Oc1ccccc1)Oc1ccccc1)C(C)O (mixture of isomers) [Boc--Leu--Thr-(4-AmPhGly)^P (OPh)2] | 35 ± 6 M⁻¹ s⁻¹ | 75 ± 1 M⁻¹ s⁻¹ | – |
| CC(C)CC(N)C(=O)NC(C(=O)NC(c1ccc(C(=N)N)cc1)P(=O)(Oc1ccccc1)Oc1ccccc1)C(C)O (mixture of isomers) [Leu--Thr-(4-AmPhGly)^P (OPh)2] | 24.5 ± 0.0 M⁻¹ s⁻¹ | 58 ± 3 M⁻¹ s⁻¹ | – |
| CC(NC(=O)C(CCCCNC(=O)OC(C)(C)C)NC(=O)OCc1ccccc1)C(=O)NC(c1ccc(C(=N)N)cc1)P(=O)(Oc1ccccc1)Oc1ccccc1 (mixture of isomers) [Cbz--Lyz(Boc)--Ala-(4-AmPhGly)^P (OPh)2] | 3,100 ± 177 M^-1 s^-1 | 450 ± 58 M⁻¹ s⁻¹ | kobsd /[I] human granzyme A (human granzyme A): 110 ± 5 M⁻¹ s⁻¹; kobsd /[I] bovine trypsin (bovine trypsin): 3100 ± 177 M⁻¹ s⁻¹; kobsd /[I] mast cell tryptase (mast cell tryptase): 8.5 ± 0.4 M⁻¹ s⁻¹; kobs /[I] mast cell tryptase (mast cell tryptase): 8.7 ± 0.4 M⁻¹ s⁻¹ |
| Cl.N=C(N)c1ccc(C(NC(=O)OCc2ccccc2)P(=O)(O)Oc2ccccc2)cc1 (stereo not drawn) [Cbz-(4-AmPhGly)^P (OPh)(OH), Phenyl Hydrogen N-Benzyloxycarbonylamino-(4-amidinophenyl)methanephosphonate Hydrochloride] | 0.3 M⁻¹ s⁻¹ | – | – |
| CC(NC(=O)C(CCCCN)NC(=O)OCc1ccccc1)C(=O)NC(c1ccc(C(=N)N)cc1)P(=O)(Oc1ccccc1)Oc1ccccc1 (mixture of isomers) [Cbz--Lys--Ala-(4-AmPhGly)^P (OPh)2] | 3,140 ± 262 M^-1 s^-1 | 180 ± 7 M⁻¹ s⁻¹ | kobsd /[I] human granzyme A (human granzyme A): 90 ± 9 M⁻¹ s⁻¹; kobsd /[I] bovine trypsin (bovine trypsin): 3140 ± 262 M⁻¹ s⁻¹; kobsd /[I] mast cell tryptase (mast cell tryptase): 2 M⁻¹ s⁻¹; kobs /[I] mast cell tryptase (mast cell tryptase): 2.0 ± 0.0 M⁻¹ s⁻¹ |
| CC(C)C(NC(=O)OC(C)(C)C)C(=O)NC(C(=O)NC(c1ccc(C(=N)N)cc1)P(=O)(Oc1ccccc1)Oc1ccccc1)C(C)C (mixture of isomers) [Boc--Val--Val-(4-AmPhGly)^P (OPh)2] | 61 ± 5 M⁻¹ s⁻¹ | 85 ± 5 M⁻¹ s⁻¹ | – |
| CC(C)C(NC(=O)C(Cc1ccccc1)NC(=O)OC(C)(C)C)C(=O)NC(c1ccc(C(=N)N)cc1)P(=O)(Oc1ccccc1)Oc1ccccc1 (mixture of isomers) [Boc--D--Phe--Val-(4-AmPhGly)^P (OPh)2] | 30 ± 2 M⁻¹ s⁻¹ | 63 ± 4 M⁻¹ s⁻¹ | – |
| Cl.N=C(N)c1cccc(C(NC(=O)OCc2ccccc2)P(=O)(Oc2ccccc2)Oc2ccccc2)c1 (stereo not drawn) [Cbz-(3-AmPhGly)^P (OPh)2, Diphenyl N-Benzyloxycarbonylamino-(3-amidinophenyl)methanephosphonate Hydrochloride] | – | – | % Inh human thrombin (human thrombin; printed in the kobs/[I] column): 50% |
| N=C(N)c1ccc(C(NC(=O)C(Cc2c[nH]c3ccccc23)NC(=O)OCc2ccccc2)P(=O)(Oc2ccccc2)Oc2ccccc2)cc1 (mixture of isomers) [Cbz--Trp-(4-AmPhGly)^P (OPh)2] | 0.6 M⁻¹ s⁻¹ | 1.2 ± 0.0 M⁻¹ s⁻¹ | – |
| Cc1ccc(S(=O)(=O)NC(c2ccc(C(=N)N)cc2)P(=O)(Oc2ccccc2)Oc2ccccc2)cc1 (racemic) [Tolyl-SO2-(4-AmPhGly)^P (OPh)2] | 35 ± 6 M⁻¹ s⁻¹ | 94 ± 26 M⁻¹ s⁻¹ | – |
| N=C(N)c1ccc(C(NC(=O)CCCc2ccccc2)P(=O)(Oc2ccccc2)Oc2ccccc2)cc1 (stereo not drawn) [4-Phenylbutanoyl-(4-AmPhGly)^P (OPh)2] | – | 17 ± 1 M⁻¹ s⁻¹ | % Inh bovine trypsin (bovine trypsin; Table II, printed in the kobs/[I] column): 15% |
| Cl.N=C(N)c1ccc(C(NC(=O)OCc2ccccc2)P(=O)(Oc2ccc(Cl)cc2)Oc2ccc(Cl)cc2)cc1 (stereo not drawn) [Cbz-(4-AmPhGly)^P (OPh-p-Cl)2, Di-p-chlorophenyl N-Benzyloxycarbonylamino-(4-amidinophenyl)methanephosphonate Hydrochloride] | 41,100 ± 5400 M^-1 s^-1 | 9,300 ± 210 M^-1 s^-1 | kobs /[I] mast cell tryptase (mast cell tryptase): 3 ± 0 M⁻¹ s⁻¹ |
| CC(C)CC(NC(=O)OC(C)(C)C)C(=O)NC(CO)C(=O)NC(c1ccc(C(=N)N)cc1)P(=O)(Oc1ccccc1)Oc1ccccc1 (mixture of isomers) [Boc--Leu--Ser-(4-AmPhGly)^P (OPh)2] | 177 ± 2 M⁻¹ s⁻¹ | 97 ± 2 M⁻¹ s⁻¹ | – |
| Cl.N=C(N)c1ccc(C(NC(=O)OCc2ccccc2)P(=O)(Oc2ccccc2)Oc2ccccc2)cc1 (stereo not drawn) [Cbz-(4-AmPhGly)^P (OPh)2, Diphenyl N-benzyloxycarbonylamino(4-amidinophenyl)methanephosphonate hydrochloride] | 170 M⁻¹ s⁻¹ | 80 M⁻¹ s⁻¹ | kobsd /[I] bovine trypsin (bovine trypsin): 2000 M⁻¹ s⁻¹ |
